{"source": "patent US20070243598A1", "about": "“NOVEL PSEUDONOCARDIA SP. RMRC PAH4 AND A PROCESS FOR BIOCONVERTING COMPACTIN INTO PRAVASTATIN USING THE SAME” (CHINESE PETROLEUM CORPORATION, priority 2004, published 2007)", "tested_on": "Pseudonocardia sp. RMRC PAH4", "assay": "Tolerance of Pseudonocardia sp. RMRC PAH4 against compactin sodium", "format": "cell-based", "conditions": "added after 48 hours on shaker in YMG liquid medium, 220 rpm, 28° C.; conversion rate could not exceed 30%", "experimental": "The strain was inoculated in the culture medium consisting of casein hydrolysate 0.05-0.2%; yeast extract 0.05-0.2%; soluble starch 0.5-2.0%; KH2PO4 0.01-0.08%; MgSO4.7H2O 0.05-0.2%; Pravastatin sodium 0.005-0.01%; and Bacto agar 2.0%, pH 7.0, and incubated under 28° C. for 7-20 days.\nThe above inoculum culture was incubated in compactin sodium-containing YMG liquid medium consisting of yeast extract 0.1-1.0%; malto extract 0.1-1.0%; peptone 0.1-1.0%; glucose 0.5-2.0%; cotton seed extract (Pharmamedia) 0.5-0.5%; KH2PO4 0.1-0.5%; Na2HPO4 0.3-0.7%; MgSO4.7H2O 0.01-0.05%; FeSO4.7H2O 0.001-0.01%; MnSO4.H2O 0.001-0.01%; CaCl2 0.001-0.01%; compactin sodium 0.002-0.01%; pH 6.5, on a shaker, at 220 rpm, under 28° C.\nAfter incubating on shaker as described above for 48 hours, 300-3,000 μg/ml of compactin sodium as added and continued the incubation under same conditions. Utilization rate of compactin sodium and conversion rate of Pravastatin sodium were analyzed by HPLC at an interval of 24 hours.", "data": [{"smiles": "CC[C@H](C)C(=O)O[C@H]1CCC=C2C=C[C@H](C)[C@H](CCCC[C@@H](O)CC(=O)O)[C@H]21", "note": "[compactin sodium]", "values": [{"measurement": "amount of compactin sodium added above which growth of the bacteria becomes considerably slow", "value": "more than 2,500 μg/ml"}]}]}
